Biological target: Chymotrypsinogen A (Bos taurus) (UniProt P00766)
Assay: Inhibition of chymotrypsin-catalyzed hydrolysis of BzTyr p-nitroanilide by compound at pH 5

CC(=O)N[C@@H](C)C(=O)NN=CCNC(=O)c1ccccc1
Ki: > 8 mM
